Experimental data as given in PubChem BioAssay (NCI).
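Method: 48-hour compound exposure of cells in 96-well plates, five concentrations, linear interpolation of endpoints. TGI denotes the concentration required for complete inhibition of growth.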

Legend:
Assay in all cases: NCI tumour cell line growth inhibition, 48 h
UACC-257 melanoma = test system: UACC-257 melanoma
OVCAR-3 ovarian = test system: OVCAR-3 ovarian
UACC-62 melanoma = test system: UACC-62 melanoma
EKVX NSCLC = test system: EKVX NSCLC
P388 leukemia = test system: P388 leukemia
HOP-62 NSCLC = test system: HOP-62 NSCLC
COLO 205 colon = test system: COLO 205 colon
A549 NSCLC = test system: A549 NSCLC
UO-31 renal = test system: UO-31 renal
SF-295 CNS = test system: SF-295 CNS
NCI-H460 lung = test system: NCI-H460 lung
OVCAR-8 ovarian = test system: OVCAR-8 ovarian
KM12 colon = test system: KM12 colon
XF 498 CNS = test system: XF 498 CNS
SN12C renal = test system: SN12C renal
RPMI-8226 leukemia = test system: RPMI-8226 leukemia
SW-620 colon = test system: SW-620 colon
K-562 leukemia = test system: K-562 leukemia
SN12K1 renal = test system: SN12K1 renal
SNB-78 CNS = test system: SNB-78 CNS
SK-MEL-5 melanoma = test system: SK-MEL-5 melanoma
HCC-2998 colon = test system: HCC-2998 colon
MCF7 breast = test system: MCF7 breast
U251 CNS = test system: U251 CNS
SK-MEL-2 melanoma = test system: SK-MEL-2 melanoma
MALME-3M melanoma = test system: MALME-3M melanoma
CCRF-CEM leukemia = test system: CCRF-CEM leukemia
KM20L2 colon = test system: KM20L2 colon
HOP-18 NSCLC = test system: HOP-18 NSCLC
LOX IMVI melanoma = test system: LOX IMVI melanoma
SF-268 CNS = test system: SF-268 CNS
RXF 393 renal = test system: RXF 393 renal
SK-MEL-28 melanoma = test system: SK-MEL-28 melanoma
HCT-15 colon = test system: HCT-15 colon
OVCAR-4 ovarian = test system: OVCAR-4 ovarian
OVCAR-5 ovarian = test system: OVCAR-5 ovarian
A498 renal = test system: A498 renal
NCI/ADR-RES ovarian = test system: NCI/ADR-RES ovarian
DLD-1 colon = test system: DLD-1 colon
NCI-H226 lung = test system: NCI-H226 lung
IGROV1 ovarian = test system: IGROV1 ovarian
SNB-19 CNS = test system: SNB-19 CNS
DMS 273 small cell lung = test system: DMS 273 small cell lung
HL-60(TB) leukemia = test system: HL-60(TB) leukemia
P388/ADR leukemia = test system: P388/ADR leukemia
HOP-92 NSCLC = test system: HOP-92 NSCLC
SNB-75 CNS = test system: SNB-75 CNS
SF-539 CNS = test system: SF-539 CNS
MOLT-4 leukemia = test system: MOLT-4 leukemia
M19-MEL melanoma = test system: M19-MEL melanoma
HCT-116 colon = test system: HCT-116 colon
SK-OV-3 ovarian = test system: SK-OV-3 ovarian
HT29 colon = test system: HT29 colon
DMS 114 small cell lung = test system: DMS 114 small cell lung
NCI-H23 lung = test system: NCI-H23 lung
NCI-H522 lung = test system: NCI-H522 lung

CN(C)CCNC(=O)c1cccc2c1Nc1ccccc1S2
TGI (UACC-257 melanoma): 27 µM
TGI (OVCAR-3 ovarian): 28 µM
TGI (UACC-62 melanoma): 28.4 µM
TGI (EKVX NSCLC): 18.7 µM
TGI (P388 leukemia): 6.23 µM
TGI (HOP-62 NSCLC): 33.4 µM
TGI (COLO 205 colon): 25.8 µM
TGI (A549 NSCLC): 28.8 µM
TGI (UO-31 renal): 21.8 µM
TGI (SF-295 CNS): 27.7 µM
TGI (NCI-H460 lung): 25.7 µM
TGI (OVCAR-8 ovarian): 30.2 µM
TGI (KM12 colon): 26.4 µM
TGI (XF 498 CNS): 25.3 µM
TGI (SN12C renal): 26.1 µM
TGI (RPMI-8226 leukemia): 29.9 µM
TGI (SW-620 colon): 30.8 µM
TGI (K-562 leukemia): 36.2 µM
TGI (SN12K1 renal): 20.7 µM
TGI (SNB-78 CNS): 27.7 µM
TGI (SK-MEL-5 melanoma): 26.3 µM
TGI (HCC-2998 colon): 27.2 µM
TGI (MCF7 breast): 27 µM
TGI (U251 CNS): 26.9 µM
TGI (SK-MEL-2 melanoma): 30.3 µM
TGI (MALME-3M melanoma): 29.2 µM
TGI (CCRF-CEM leukemia): 28.1 µM
TGI (KM20L2 colon): 29.9 µM
TGI (HOP-18 NSCLC): 24.4 µM
TGI (LOX IMVI melanoma): 26.2 µM
TGI (SF-268 CNS): 31.7 µM
TGI (RXF 393 renal): 23.6 µM
TGI (SK-MEL-28 melanoma): 27.7 µM
TGI (HCT-15 colon): 31.4 µM
TGI (OVCAR-4 ovarian): 26.4 µM
TGI (OVCAR-5 ovarian): 26.3 µM
TGI (A498 renal): 24.5 µM
TGI (NCI/ADR-RES ovarian): 32.6 µM
TGI (DLD-1 colon): 29.7 µM
TGI (NCI-H226 lung): 16.8 µM
TGI (IGROV1 ovarian): 24.1 µM
TGI (SNB-19 CNS): 24 µM
TGI (DMS 273 small cell lung): 29.3 µM
TGI (HL-60(TB) leukemia): 19.2 µM
TGI (P388/ADR leukemia): 9.51 µM
TGI (HOP-92 NSCLC): 8.96 µM
TGI (SNB-75 CNS): 21.3 µM
TGI (SF-539 CNS): 28.8 µM
TGI (MOLT-4 leukemia): 29.5 µM
TGI (M19-MEL melanoma): 29.6 µM
TGI (HCT-116 colon): 25 µM
TGI (SK-OV-3 ovarian): 30.5 µM
TGI (HT29 colon): 25 µM
TGI (DMS 114 small cell lung): 20 µM
TGI (NCI-H23 lung): 28.5 µM

CSCC[C@@H](NC(=O)[C@H](CC(C)C)NC(=O)C(Cc1cnc[nH]1)NC(=O)CNC(=O)[C@@H](NC(=O)[C@H](C)NC(=O)[C@H](Cc1c[nH]c2ccccc12)NC(=O)[C@H](CCC(N)=O)NC(=O)[C@@H](N)CC(N)=O)C(C)C)C(N)=O (stereo partly specified)
TGI (UACC-257 melanoma): > 100 µM
TGI (OVCAR-3 ovarian): > 100 µM
TGI (UACC-62 melanoma): > 100 µM
TGI (EKVX NSCLC): > 100 µM
TGI (P388 leukemia): > 100 µM
TGI (HOP-62 NSCLC): > 100 µM
TGI (COLO 205 colon): > 100 µM
TGI (A549 NSCLC): > 100 µM
TGI (UO-31 renal): > 100 µM
TGI (SF-295 CNS): > 100 µM
TGI (NCI-H460 lung): > 100 µM
TGI (OVCAR-8 ovarian): > 100 µM
TGI (KM12 colon): > 100 µM
TGI (XF 498 CNS): > 100 µM
TGI (SN12C renal): > 100 µM
TGI (RPMI-8226 leukemia): > 100 µM
TGI (SW-620 colon): > 100 µM
TGI (K-562 leukemia): > 100 µM
TGI (SN12K1 renal): > 100 µM
TGI (SNB-78 CNS): > 100 µM
TGI (SK-MEL-5 melanoma): > 100 µM
TGI (NCI-H522 lung): > 100 µM
TGI (HCC-2998 colon): > 100 µM
TGI (MCF7 breast): > 100 µM
TGI (U251 CNS): > 100 µM
TGI (SK-MEL-2 melanoma): > 100 µM
TGI (MALME-3M melanoma): > 100 µM
TGI (CCRF-CEM leukemia): > 100 µM
TGI (KM20L2 colon): > 100 µM
TGI (HOP-18 NSCLC): > 100 µM
TGI (LOX IMVI melanoma): > 100 µM
TGI (SF-268 CNS): > 100 µM
TGI (RXF 393 renal): > 100 µM
TGI (SK-MEL-28 melanoma): > 100 µM
TGI (HCT-15 colon): > 100 µM
TGI (OVCAR-4 ovarian): > 100 µM
TGI (OVCAR-5 ovarian): > 100 µM
TGI (A498 renal): > 100 µM
TGI (NCI/ADR-RES ovarian): > 100 µM
TGI (DLD-1 colon): > 100 µM
TGI (NCI-H226 lung): > 100 µM
TGI (IGROV1 ovarian): > 100 µM
TGI (SNB-19 CNS): > 100 µM
TGI (DMS 273 small cell lung): > 100 µM
TGI (HL-60(TB) leukemia): > 100 µM
TGI (P388/ADR leukemia): > 100 µM
TGI (HOP-92 NSCLC): > 100 µM
TGI (SNB-75 CNS): > 100 µM
TGI (SF-539 CNS): > 100 µM
TGI (MOLT-4 leukemia): > 100 µM
TGI (M19-MEL melanoma): > 100 µM
TGI (HCT-116 colon): > 100 µM
TGI (SK-OV-3 ovarian): > 100 µM
TGI (HT29 colon): > 100 µM
TGI (DMS 114 small cell lung): > 100 µM
TGI (NCI-H23 lung): > 100 µM
